According to the NIST ThermoML archive (doi:10.1021/acs.jced.8b00176):

Experiment: xn = mol fraction of the nth substance listed
Details: 100 kPa, Liquid; for viscosity: Falling or rolling sphere viscometry; for speed of sound: Frequency=3 MHz, Single path-length method; for mass density: Vibrating tube method

CCCCn1cc[n+](C)c1.O=S(=O)([O-])C(F)(F)F [1-butyl-3-methylimidazolium trifluoromethanesulfonate] + CN(C)C=O
Details	mass density, 313.15 K [kg/m3]	mass density, 318.15 K [kg/m3]	mass density, 323.15 K [kg/m3]	speed of sound, 313.15 K [m/s]	speed of sound, 318.15 K [m/s]	speed of sound, 323.15 K [m/s]	viscosity, 313.15 K [mPa·s]	viscosity, 318.15 K [mPa·s]	viscosity, 323.15 K [mPa·s]
x1 = 0.1087	1027.69	1022.88	1018.08	1398.1	1381.2	1364.5	1.44	1.34	1.26
x1 = 0.203	1085.84	1081.13	1076.42	1390.4	1375	1359.6	2.64	2.4	2.2
x1 = 0.2978	1129.15	1124.56	1119.97	1381.4	1367	1352.6	3.81	3.47	3.17
x1 = 0.409	1168.33	1163.87	1159.41	1373.6	1360.1	1346.7	6.01	5.41	4.88
x1 = 0.4969	1193.03	1188.67	1184.31	1369.7	1356.8	1344	8.71	7.74	6.89
x1 = 0.603	1217.94	1213.69	1209.43	1365.6	1353.3	1341.1	13.22	11.6	10.21
x1 = 0.699	1237.03	1232.85	1228.67	1363	1351.2	1339.5	19.53	16.84	14.64
x1 = 0.809	1256.31	1252.21	1248.11	1361.7	1350.3	1339.1	29.38	24.86	21.29
x1 = 0.8928	1269.5	1265.45	1261.4	1360.9	1349.7	1338.7	37.11	31.09	26.39
x1 = 1	1285.47	1281.47	1277.48	1360.7	1349.9	1338.8	43.67	36.29	30.57
